From patent US6916802B2, “Amino ceramide-like compounds and therapeutic methods of use” (Genzyme Corporation, priority 2002, dated 2005)
Where “and” joins values, the source holds several entries; their conditions need not be identical. Equal values may be shown once. Marks after values point to notes of the source that are not given here.

Tests used:
[1] = test system: GlcCer synthase of MDCK cell homogenates; experiment: Inhibition of ceramide glucosyltransferase (GlcCer synthase) of MDCK cell homogenates; format: biochemical, canine; conditions: triplicate ± SD, samples partly isomer mixtures
Protocol: Assay of sphingolipid enzymes. The inhibitors were evaluated for their effectiveness against the GlcCer synthase of MDCK cell homogenates by incubation in a thermostatted ultrasonic bath (Radin N. S. et al., “Ultrasonic Baths as Substitutes for Shaking Incubator Baths,” Enzyme, 45:67-70 (1991)) with octanoyl sphingosine and uridinediphospho[^3H]glucose (Shukla, G. S. et al., “Glucosylceramide Synthase of Mouse Kidney: Further Characterization and Improved Assay Method,” Arch. Biochem. Biophys., 283:372-378 (1990)). The lipoidal substrate (85 μg) was added in liposomes made from 0.57 mg dioleoylphosphatidylcholine and 0.1 mg of Na sulfatide. Confluent cells were washed, then homogenized with a micro-tip sonicator at 0° C. for 3×30 sec; ˜0.2 mg of protein was used in each assay tube. In the case of the aromatic inhibitors, the test compound was simply evaporated to dryness from solution in the incubation tube. […] The aliphatic inhibitors, which appeared to be less soluble in water, were added as part of the substrate liposomes.

[2] = test system: MCF-7 breast carcinoma cells; experiment: Tumor cell growth in vitro (sulforhodamine B), MCF-7; format: cell-based, human; conditions: Homo sapiens, MCF7, rounded off to one digit, read-out: Inhibition of tumor cell growth in vitro, IC50
Protocol: (§1) Growth of cell lines. Comparisons of different inhibitors with regard to suppression of human cancer cell growth were made by the University of Michigan Cancer Center in vitro Drug Evaluation Core Laboratory. MCF-7 breast carcinoma cells, HT-29 colon adenocarcinoma cells, H-460 lung large cell carcinoma cells, and 9L brain gliosarcoma cells were grown in RPMI 1640 medium with 5% fetal bovine serum, 2 mM glutamine, 50 units/ml of penicillin, […] of streptomycin, and 0.1 mg/ml of neomycin. UMSCC-10A head and neck squamous carcinoma cells were grown in minimal essential medium with Earle salts and the same supplements. Medium components were from Sigma Chemical Co. Cells were plated in 96-well microtiter plates (1000 cells/well for H-460 and 9L cells, and 2000 cells/well for the other lines), and the test compounds were added 1 day later. The stock inhibitor solutions, 2 mM in 2 mM BSA, were diluted with different amounts of additional 2 mM BSA, then each solution was diluted 500-fold with growth medium to obtain the final concentrations indicated in the Figures and Tables.
(§2) Five days after plating the H-460 and 9L cells, or 6 days for the other lines, cell growth was evaluated by staining the adhering cells with sulforhodamine B and measuring the absorbance at 520 nm (Skehan, P. et al., “New Colorimetric Cytotoxicity Assay for Anticancer-Drug Screening,” J. Natl. Cancer Inst., 82:1107-1112 (1990)). The absorbance of the treated cultures is reported as percent of that of control cultures, to provide an estimate of the fraction of the cells that survived, or of inhibition of growth rate.

[3] = test system: H-460 lung large cell carcinoma cells; experiment: Tumor cell growth in vitro (sulforhodamine B), H-460; format: cell-based, human; conditions: Homo sapiens, NCI-H460, rounded off to one digit, read-out: Inhibition of tumor cell growth in vitro, IC50
Protocol: as §1, §2

[4] = test system: HT-29 colon adenocarcinoma cells; experiment: Tumor cell growth in vitro (sulforhodamine B), HT-29; format: cell-based, human; conditions: Homo sapiens, rounded off to one digit, read-out: Inhibition of tumor cell growth in vitro, IC50
Protocol: as §1, §2

[5] = test system: 9L brain gliosarcoma cells; experiment: Tumor cell growth in vitro (sulforhodamine B), 9L; format: cell-based
Protocol: as §1, §2

[6] = test system: UMSCC-10A head and neck squamous carcinoma cells; experiment: Tumor cell growth in vitro (sulforhodamine B), UMSCC-10A; format: cell-based, human; conditions: Homo sapiens, rounded off to one digit, read-out: Inhibition of tumor cell growth in vitro, IC50
Protocol: as §1, §2

IC50 [2]: 2000 nM
IC50 [3]: 1000 nM
IC50 [4]: 1000 nM
IC50 ([5]; 9L, rounded off to one digit, read-out: Inhibition of tumor cell growth in vitro, IC50): 1000 nM
IC50 [6]: 1000 nM
SMILES: CCCCCCCCCCCCCCCC(=O)NC(CN1CCCC1)C(O)c1ccccc1 (racemic) [BML-119, 1-phenyl-2-palmitoylamino-3-pyrrolidino-1-propanol]
Inhibition at 5 μM ([1]; 5 μM inhibitor, 5 µM): 50% and 51 ± 2.3^e % and 49 ± 0.8^f %
% Inhibition at 80 μM ([1]; 80 μM inhibitor, 80 µM): 94 ± 1.4^b % and 97 ± 0.1^c % and 96 ± 0.1^d %
activity at 1 µM ([5]; 9L cells, 1 μM inhibitor, read-out: growth, % of control growth): 71%
activity at 3 µM ([5]; 9L cells, 3 μM inhibitor, read-out: growth, % of control growth): 3%
